# Columns and labels:
# KG-1a cells [1] = assay: CD33 expression by flow cytometry (PE anti-CD33 P67.6) after pretreatment with epigenetic drug; assay type: cell-based, human; conditions: 3-day pretreatment, relative to untreated
# Text: CD33 expression on parental AML cells and cell lines was quantified by flow cytometry using a phycoerythrin (PE)-conjugated anti-CD33 antibody (clone P67.6; BD Biosciences, San Jose, Calif., USA) (see Walter et al. Blood. 2005; 105(3):1295-1302).
# AML target cells = conditions: co-therapy of lintuzumab and 5-azacytidine; cited from earlier work
# AML cells or macrophages = conditions: incubation of AML cells or macrophages; cited from earlier work
# HL-60 AML cells = assay: Hydroxyurea up-regulation of CD33 on AML cell lines, flow cytometry; assay type: cell-based; conditions: for CD33 MFI Ratio: day 3, untreated 134.9
# Method: (§1) AML cell lines HL-60, PL21, OCI-AML3, KG1a and MV4-11 were seeded in 24-well plates at 1×10^6 cells/ml on day 0. Cells were either left untreated (UT) or treated with 10 μM (H1) or 100 μM (H2) hydroxyurea (Sigma) for three consecutive days (day 0, day 1 and day 2). On day 3, cells were harvested, counted and analyzed for changes in CD33 surface expression level by flow cytometry.
# PL21 AML cells = assay: as above; assay type: cell-based; conditions: for CD33 MFI Ratio: day 3, untreated 166.9
# Method: as §1
# primary AML cells = assay: Hydroxyurea up-regulation of CD33 on primary AML cells, flow cytometry; assay type: cell-based
# Method: Three primary AML samples were seeded in a 12-well plates at 1×10^6 cells/ml, as previously described (Krupka, Subklewe et. al, Blood 2014). Cells were either left untreated (UT) or treated with 10 μM (H1) or 100 μM (H2) hydroxyurea (Sigma) for three consecutive days (day 0, day 1 and day 2). On day 1-day 3, cells were harvested, counted and analyzed for changes in CD33 surface expression by flow cytometry.
# OCI-AML3 cells = assay: AMG 330-induced cytotoxicity with healthy donor T-cells (DAPI, 48 h) after epigenetic drug pretreatment; assay type: cell-based, human; conditions: 3-day pretreatment, relative to untreated cells
# Method: Parental OCI-AML3 and KG-1a cells were either left untreated or pretreated with panobinostat for 72 hours. […] 48 hours later, cell counts were determined and cytotoxicity was assessed with DAPI staining to quantify drug-specific cytotoxicity. Results are shown as mean±SEM from 3 independent experiments performed in duplicate wells using a single healthy donor as source for exogenous T-cells.
# (§2) For the experimental settings mononuclear cells were collected from healthy adult volunteers via leukapheresis, and T cells enriched through magnetic cell sorting (Pan T Cell Isolation Kit II; Miltenyi Biotec, Auburn, Calif.). Thawed cell aliquots were labeled with 3 μM CellVue Burgundy (eBioscience, San Diego, Calif.) according to the manufacturer's instructions.
# (§3) For the quantification of compound induces cytotoxicity AML cells were taken during exponential growth and incubated at 37° C. […] After 48 hours, cell numbers and drug-induced cytotoxicity, using 4′,6-diamidino-2-phenylindole (DAPI) to detect non-viable cells, were determined using a LSRII flow cytometer (BD Biosciences, San Jose, Calif.) and analyzed with FlowJo (Tree Star, Ashland, Oreg.). AML cells were identified by forward/side scatter properties and negativity for CellVue Burgundy dye.
# KG-1a cells [2] = assay: as above; conditions: 3-day pretreatment, relative to untreated cells
# Method: Parental OCI-AML3 and KG-1a cells were either left untreated or pretreated with panobinostat for 72 hours. […] 48 hours later, cell counts were determined and cytotoxicity was assessed with DAPI staining to quantify drug-specific cytotoxicity.
# Parental KG-1a cells were either left untreated or pretreated with azacitidine for 72 hours. […] 48 hours later, cell counts were determined and cytotoxicity was assessed with DAPI staining to quantify drug-specific cytotoxicity.
# as §2, §3
# [3] = molecular target: T1, CD19 B-cell surface antigen and CD3 (Homo sapiens, UniProt P07766+P15391); conditions: patients with B-cell lymphomas and B precursor ALL; cited from earlier work
# T1 construct: host or cells: patients (endogenous CD19 on B cells, CD3 epsilon on T cells)
# CD33 = molecular target: T2, CD33 (Homo sapiens, UniProt P20138); conditions: cited from earlier work
# T2 construct: myeloid differentiation antigen found on AML blasts in most patients; host or cells: AML patients (endogenous CD33 on blasts)
# T2 sequence (P20138 18-364): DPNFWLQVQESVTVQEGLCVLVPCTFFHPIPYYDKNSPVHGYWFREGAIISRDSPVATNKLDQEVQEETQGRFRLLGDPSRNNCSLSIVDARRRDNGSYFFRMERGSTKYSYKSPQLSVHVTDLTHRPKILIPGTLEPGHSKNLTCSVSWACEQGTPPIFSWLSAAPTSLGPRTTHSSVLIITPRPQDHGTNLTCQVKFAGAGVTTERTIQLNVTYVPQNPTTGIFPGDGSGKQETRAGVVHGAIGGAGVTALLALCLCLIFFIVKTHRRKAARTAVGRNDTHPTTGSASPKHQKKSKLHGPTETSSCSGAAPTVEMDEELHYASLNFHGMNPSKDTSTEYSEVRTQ
compound,measurement,setting,value
"Nc1ncn([C@@H]2O[C@H](CO)[C@@H](O)[C@H]2O)c(=O)n1 [azacitidine, 5-azacytidine]",CD33 expression,KG-1a cells [1],significant increase
same,lintuzumab-mediated ADCC,AML target cells,improved
same,CD33 expression,AML cells or macrophages,did not affect
"NC(=O)NO [hydroxyurea, Hydroxyurea]",CD33 MFI Ratio,"HL-60 AML cells; HL-60, H1 = 10 μM hydroxyurea on three consecutive days",171.3
same,CD33 MFI Ratio,"HL-60 AML cells; HL-60, H2 = 100 μM hydroxyurea on three consecutive days",210.0
same,upregulation of CD33 (in words),"HL-60 AML cells; HL-60 AML cells, 10 and 100 μM",upregulation of CD33
same,CD33 MFI Ratio,"PL21 AML cells; PL21, H1 = 10 μM hydroxyurea on three consecutive days",177.9
same,CD33 MFI Ratio,"PL21 AML cells; PL21, H2 = 100 μM hydroxyurea on three consecutive days",191.8
same,upregulation of CD33 (in words),"PL21 AML cells; PL21 AML cells, 10 and 100 μM",upregulation of CD33
same,CD33 MFI Ratio,"primary AML cells; primary AML cells patient 2, day 1, H1 = 10 μM hydroxyurea, untreated 3.7",4.2
same,CD33 MFI Ratio,"primary AML cells; primary AML cells patient 2, day 1, H2 = 100 μM hydroxyurea, untreated 3.7",4.5
same,CD33 MFI Ratio,"primary AML cells; primary AML cells patient 2, day 2, H1 = 10 μM hydroxyurea, untreated 4.8",4.2
same,CD33 MFI Ratio,"primary AML cells; primary AML cells patient 2, day 2, H2 = 100 μM hydroxyurea, untreated 4.8",5.1
same,up-regulation of CD33 in patient samples (in words),"primary AML cells; three primary AML samples, day 1 and day 2 of incubation",up-regulation of CD33 in 1 of 3 patient samples
Cc1[nH]c2ccccc2c1CCNCc1ccc(/C=C/C(=O)NO)cc1 [panobinostat],sensitivity to AMG 330-induced cytotoxicity,OCI-AML3 cells,modestly more sensitive
same,sensitivity to AMG 330-induced cytotoxicity,KG-1a cells [2],modestly more sensitive
blinatumomab: bispecific antibody directed at CD19 and the CD3 component of the T-cell receptor complex,therapeutic efficacy,[3],therapeutic efficacy was shown
lintuzumab: intact humanized CD33 antibody,survival benefit,"CD33; phase III trial, combined with a triple chemotherapy regimen",no survival benefit
same,clinical response,CD33; single-agent phase I and II trial,complete remission in individual patients

# From US10933132B2, “Combination of epigenetic factors and bispecific compounds targeting CD33 and CD3 in the treatment of myeloid leukemia” (AMGEN RESEARCH (MUNICH) GMBH, priority 2013, dated 2021)
